From EPA's ToxRefDB 2

How the values were obtained:
rat [1] = settings: Fertility (Segment I); sprague dawley; Oral; Gavage/Intubation; dose end: 4 week; group: parental; systemic / organ weight / epididymis / relative to body weight + systemic / pathology microscopic / epididymis / [other] + systemic / …
rat [2] = settings: Sub-acute repeat dose toxicity; fischer; Oral; Gavage/Intubation; dose end: 16 day; group: systemic; systemic / in life observation / clinical signs / altered breathing rate + systemic / in life observation / clinical signs / ataxia + …
mouse [3] = settings: Sub-acute repeat dose toxicity; b6c3f1; Oral; Gavage/Intubation; dose end: 16 day; group: systemic; systemic / in life observation / clinical signs / altered breathing rate + systemic / in life observation / clinical signs / ataxia + …
mouse [4] = settings: Subchronic oral toxicity in rodents, b6c3f1, Gavage/Intubation, dose end: 13 week, group: systemic
mouse [5] = settings: Carcinogenicity, b6c3f1, Oral, Gavage/Intubation, dose end: 103 week, group: systemic
mouse [6] = settings: Chronic toxicity, cd1, Oral, Feed, dose end: 109 week, group: systemic
rat [7] = settings: Chronic toxicity, sprague dawley, Oral, Feed, dose end: 110 week
rat [8] = settings: Carcinogenicity; fischer; Oral; Gavage/Intubation; dose end: 103 week; group: systemic; systemic / pathology microscopic / kidney / nephropathy + systemic / pathology microscopic / liver / degeneration + systemic / pathology …
rat [9] = settings: Subchronic oral toxicity in rodents, fischer, Gavage/Intubation, dose end: 13 week, group: systemic
[10] = systemic / organ weight / liver / absolute + systemic / organ weight / liver / relative to body weight + systemic / pathology microscopic / …
[11] = systemic / pathology microscopic / liver / eosinophilic focus + systemic / pathology microscopic / liver / syncytial alteration
[12] = systemic / pathology microscopic / liver / eosinophilic focus + systemic / pathology microscopic / liver / syncytial alteration + systemic…
[13] = systemic / organ weight / liver / nos
[14] = group: cholinesterase, cholinesterase / cholinesterase / cholinesterase / plasma cholinesterase (che)
[15] = group: systemic, systemic / clinical chemistry / cholesterol / cholesterol
[16] = group: systemic, systemic / clinical chemistry / cholesterol / cholesterol + systemic / clinical chemistry / glucose / glucose + systemic / clinical …

COS(C)(=O)=O [Methyl methanesulfonate] was tested, and the LEL (rat [1]) was 20 mg/kg/day, the LOAEL (rat [1]) was over 20 mg/kg/day and the NEL (rat [1]) was under 20 mg/kg/day. It also gave an NOAEL (rat [1]) of at least 20 mg/kg/day.

O=c1ccc2ccccc2o1 [Coumarin] showed an LEL (rat [2]) of 400 mg/kg/day, an LOAEL (rat [2]) of over 400 mg/kg/day and an NEL (rat [2]) of 200 mg/kg/day. For the same compound, the NOAEL (rat [2]) was at least 400 mg/kg/day, the LEL (mouse [3]) was 300 mg/kg/day and the LOAEL (mouse [3]) was 300 mg/kg/day. For the same compound, the NEL (mouse [3]) was 150 mg/kg/day, the NOAEL (mouse [3]) was 150 mg/kg/day and the LEL (mouse [4]; systemic / hematology / mean corpuscular (cell) volume (mcv) / mean corpuscular (cell) volume (mcv) + systemic / hematology / mean …) was 38 mg/kg/day. The NEL (mouse [4]; systemic / in life observation / body weight / body weight + systemic / in life observation / body weight / body weight gain + systemic / …) was 19 mg/kg/day, the LOAEL (mouse [4]; [10]) was 300 mg/kg/day and the NOAEL (mouse [4]; [10]) was 150 mg/kg/day. It also gave an LOAEL (mouse [5]; [11]) of 50 mg/kg/day, an NOAEL (mouse [5]; [11]) of under 50 mg/kg/day and an LEL (mouse [5]; [12]) of 50 mg/kg/day. It also gave an NEL (mouse [5]; [12]) of under 50 mg/kg/day, an LEL (mouse [6]; systemic / in life observation / body weight / body weight gain) of 85.8 mg/kg/day and an NEL (mouse [6]; systemic / in life observation / body weight / body weight gain + systemic / in life observation / food consumption / food efficiency) of 26.2 mg/kg/day. The LOAEL (mouse [6]; [13]) was over 271 mg/kg/day, the NOAEL (mouse [6]; [13]) was at least 271 mg/kg/day and the LEL (rat [7]; [14]) was 16 mg/kg/day. It also gave an LOAEL (rat [7]; [14]) of over 283 mg/kg/day, an NEL (rat [7]; [14]) of under 16 mg/kg/day and an NOAEL (rat [7]; [14]) of at least 283 mg/kg/day. It also gave an LEL (rat [7]; [15]) of 13 mg/kg/day, an NEL (rat [7]; [15]) of under 13 mg/kg/day and an LOAEL (rat [7]; [16]) of over 234 mg/kg/day. The NOAEL (rat [7]; [16]) was at least 234 mg/kg/day, the LEL (rat [8]) was 25 mg/kg/day and the LOAEL (rat [8]) was 25 mg/kg/day. For the same compound, the NEL (rat [8]) was under 25 mg/kg/day, the NOAEL (rat [8]) was under 25 mg/kg/day and the LEL (rat [9]; systemic / hematology / erythrocyte (rbc) count differential / erythrocyte (rbc) + systemic / hematology / mean corpuscular (cell) volume (…) was 75 mg/kg/day. For the same compound, the LOAEL (rat [9]; [10]) was 150 mg/kg/day, the NEL (rat [9]; [10]) was 38 mg/kg/day and the NOAEL (rat [9]; [10]) was 75 mg/kg/day.
